Data on 27 molecules can be found in patent publication US8012975B2, “Antitumoral analogs of ET-743” (Pharma Mar, S.A., priority 2000, dated 2011).

Structures are written as SMILES.

One experiment relates to P-388. Briefly: Cytotoxic activity IC50, P-388. As to conditions: Mus musculus, P388, read-out: CYTOTOXIC ACTIVITIY IC50 (μM) P-388.
The test system of a further experiment is A-549. As to the kind of experiment: Cytotoxic activity IC50, A-549. Conditions: Homo sapiens, A549, read-out: CYTOTOXIC ACTIVITIY IC50 (μM) A-549, A-549.
Another experiment relates to HT-29. Briefly: Cytotoxic activity IC50, HT-29. Conditions: Homo sapiens, HT-29, read-out: CYTOTOXIC ACTIVITIY IC50 (μM) HT-29, HT-29.
The test system of the next experiment is MEL-28. Briefly: Cytotoxic activity IC50, MEL-28. As to conditions: Homo sapiens, SK-MEL-28, read-out: CYTOTOXIC ACTIVITIY IC50 (μM) MEL-28, MEL-28.
The test system of a further experiment is DU-145. Briefly: Cytotoxic activity IC50, DU-145. Conditions: Homo sapiens, DU-145, read-out: CYTOTOXIC ACTIVITIY IC50 (μM) DU-145, DU-145.

Consider `COc1c(C)cc2c(c1O)[C@@H]1C3Cc4c(OC(C)=O)c(C)c5c(c4[C@H](CNC(=O)[C@@H](NC(=O)OCc4ccccc4)C(C)C)N3[C@@H](C#N)[C@H](C2)N1C)OCO5` (stereo partly drawn), for which the IC50 in the experiment with P-388, in the experiment with A-549, in the experiment with HT-29, in the experiment on MEL-28 and in the experiment on DU-145 was 0.001 µM each time.
With `COc1c(C)cc2c(c1O)[C@@H]1C3Cc4c(OC(C)=O)c(C)c5c(c4[C@H](CNC(=O)[C@H](C)NC(=O)CCc4ccccc4)N3[C@@H](C#N)[C@H](C2)N1C)OCO5` (stereo partly drawn), the IC50 with P-388 is 0.0006 µM; in the experiment with A-549, 0.001 µM; with HT-29, 0.0006 µM; with MEL-28, 0.001 µM; in the experiment on DU-145, 0.0006 µM.
Consider `CCC(=O)N[C@@H](C)C(=O)NC[C@H]1c2c(c(OC(C)=O)c(C)c3c2OCO3)CC2[C@H]3c4c(cc(C)c(OC)c4O)C[C@@H]([C@H](C#N)N21)N3C` (stereo partly drawn), for which the 50% inhibitory concentration (IC50) in the experiment with P-388, in the experiment with A-549, with HT-29, with MEL-28 and with DU-145 was 0.0007 µM throughout.
Consider `C/C=C/C(=O)N[C@@H](C)C(=O)NC[C@H]1c2c(c(OC(C)=O)c(C)c3c2OCO3)CC2[C@H]3c4c(cc(C)c(OC)c4O)C[C@@H]([C@H](C#N)N21)N3C` (stereo partly drawn), for which the concentration for half-maximal inhibition (IC50) in the experiment on P-388 came to 0.001 µM; with A-549, 0.007 µM; in the experiment on HT-29 it was 0.001 µM; with MEL-28, 0.001 µM; in the experiment on DU-145 it was 0.007 µM.
As to `COc1c(C)cc2c(c1O)[C@@H]1C3Cc4c(OC(C)=O)c(C)c5c(c4[C@H](CNC(=O)[C@H](C)NC(=O)[C@@H](NC(=O)OCc4ccccc4)C(C)C)N3[C@@H](C#N)[C@H](C2)N1C)OCO5` (stereo partly drawn), the IC50 in the experiment with P-388, in the experiment on A-549, in the experiment on HT-29, with MEL-28 and in the experiment with DU-145 was 0.01 µM each time.
`CCCC(=O)N[C@@H](C)C(=O)NC[C@H]1c2c(c(OC(C)=O)c(C)c3c2OCO3)CC2[C@H]3c4c(cc(C)c(OC)c4O)C[C@@H]([C@H](O)N21)N3C` (stereo partly drawn): the IC50 in the experiment on P-388, in the experiment with A-549, with HT-29, in the experiment with MEL-28 and with DU-145 was 0.001 µM in each case.
With `C/C=C/C(=O)N[C@@H](C)C(=O)NC[C@H]1c2c(c(OC(C)=O)c(C)c3c2OCO3)CC2[C@H]3c4c(cc(C)c(OC)c4O)C[C@@H]([C@H](O)N21)N3C` (stereo partly drawn), the concentration for half-maximal inhibition (IC50) with P-388 turned out to be 0.001 µM; with A-549, 0.007 µM; in the experiment with HT-29 it was 0.001 µM; in the experiment on MEL-28, 0.001 µM; with DU-145, 0.007 µM.
For `C=CCOc1c(C)c2c(c3c1CC1[C@H]4c5c(cc(C)c(OC)c5OCOC)C[C@@H]([C@H](C#N)N1[C@H]3COC(=O)CCC)N4C)OCO2` (stereo partly drawn), the IC50 in the experiment with P-388, with A-549, in the experiment on HT-29, with MEL-28 and with DU-145 was more than 1 µM throughout.
Regarding `C=CCOc1c(C)c2c(c3c1CC1[C@H]4c5c(cc(C)c(OC)c5OCOC)C[C@@H]([C@H](C#N)N1[C@H]3COC(=O)/C=C/c1cccc(C(F)(F)F)c1)N4C)OCO2` (stereo partly drawn), the 50% inhibitory concentration (IC50) in the experiment with P-388, with A-549, in the experiment with HT-29, with MEL-28 and in the experiment on DU-145 was more than 1 µM throughout.
With `C=CCOc1c(C)c2c(c3c1CC1[C@H]4c5c(cc(C)c(OC)c5OCOC)C[C@@H]([C@H](C#N)N1[C@H]3COC(=O)/C=C/c1ccccc1)N4C)OCO2` (stereo partly drawn), the half-inhibitory concentration (IC50) in the experiment on P-388, in the experiment with A-549, in the experiment on HT-29, with MEL-28 and in the experiment on DU-145 was 0.1 µM throughout.
Regarding `CCCC(=O)OC[C@H]1c2c(c(O)c(C)c3c2OCO3)CC2[C@H]3c4c(cc(C)c(OC)c4OCOC)C[C@@H]([C@H](C#N)N21)N3C` (stereo partly drawn), the IC50 in the experiment with P-388, in the experiment with A-549, in the experiment with HT-29, with MEL-28 and in the experiment on DU-145 was 0.1 µM each time.
Take `COCOc1c(OC)c(C)cc2c1[C@@H]1C3Cc4c(O)c(C)c5c(c4[C@H](COC(=O)/C=C/c4cccc(C(F)(F)F)c4)N3[C@@H](C#N)[C@H](C2)N1C)OCO5` (stereo partly drawn): the IC50 in the experiment on P-388, in the experiment on A-549, in the experiment with HT-29, in the experiment with MEL-28 and in the experiment with DU-145 was 0.1 µM throughout.
For `COCOc1c(OC)c(C)cc2c1[C@@H]1C3Cc4c(O)c(C)c5c(c4[C@H](COC(=O)CCc4ccccc4)N3[C@@H](C#N)[C@H](C2)N1C)OCO5` (stereo partly drawn), the 50% inhibitory concentration (IC50) with P-388, with A-549, with HT-29, in the experiment on MEL-28 and in the experiment on DU-145 was 0.1 µM each time.
For `COCOc1c(OC)c(C)cc2c1[C@@H]1C3Cc4c(O)c(C)c5c(c4[C@H](COC(=O)/C=C/c4ccccc4)N3[C@@H](C#N)[C@H](C2)N1C)OCO5` (stereo partly drawn), the IC50 with P-388, with A-549, with HT-29, with MEL-28 and in the experiment with DU-145 was 0.1 µM each time.
Turning to `COCOc1c(OC)c(C)cc2c1[C@@H]1C3Cc4c(OC(C)=O)c(C)c5c(c4[C@H](COC(=O)/C=C/c4cccc(C(F)(F)F)c4)N3[C@@H](C#N)[C@H](C2)N1C)OCO5` (stereo partly drawn), the IC50 in the experiment with P-388, with A-549, in the experiment with HT-29, with MEL-28 and with DU-145 was 0.6 µM in each case.
For the molecule `COCOc1c(OC)c(C)cc2c1[C@@H]1C3Cc4c(OC(C)=O)c(C)c5c(c4[C@H](COC(=O)CCc4ccccc4)N3[C@@H](C#N)[C@H](C2)N1C)OCO5` (stereo partly drawn), the 50% inhibitory concentration (IC50) with P-388, with A-549, in the experiment with HT-29, with MEL-28 and in the experiment on DU-145 was 0.1 µM in each case.
With `COc1c(C)cc2c(c1O)[C@@H]1C3Cc4c(OC(C)=O)c(C)c5c(c4[C@H](COC(=O)/C=C/c4cccc(C(F)(F)F)c4)N3[C@@H](C#N)[C@H](C2)N1C)OCO5` (stereo partly drawn), the IC50 in the experiment with P-388, in the experiment on A-549, in the experiment on HT-29, in the experiment on MEL-28 and in the experiment on DU-145 was 0.001 µM throughout.
For the molecule `C=CCOC(=O)Oc1c(C)c2c(c3c1CC1[C@H]4c5c(cc(C)c(OC)c5OCOC)C[C@@H]([C@H](C#N)N1[C@H]3CNC(=O)[C@H](C)NC(=O)OC(C)(C)C)N4C)OCO2` (stereo partly drawn), the half-inhibitory concentration (IC50) in the experiment with P-388, in the experiment with A-549, in the experiment with HT-29, in the experiment on MEL-28 and in the experiment on DU-145 was 0.06 µM in each case.
On to `C=CCOC(=O)Oc1c(C)c2c(c3c1CC1[C@H]4c5c(cc(C)c(OC)c5O)C[C@@H]([C@H](C#N)N1[C@H]3CNC(=O)[C@H](C)N)N4C)OCO2` (stereo partly drawn), for which the IC50 in the experiment with P-388, in the experiment on A-549, in the experiment with HT-29, in the experiment with MEL-28 and in the experiment with DU-145 was 0.001 µM throughout.
For `C=CCOC(=O)Oc1c(C)c2c(c3c1CC1[C@H]4c5c(cc(C)c(OC)c5O)C[C@@H]([C@H](C#N)N1[C@H]3CNC(=O)[C@H](C)NC(=S)Nc1ccccc1)N4C)OCO2` (stereo partly drawn), the half-inhibitory concentration (IC50) in the experiment with P-388, with A-549, in the experiment with HT-29, in the experiment with MEL-28 and with DU-145 was 0.001 µM throughout.
As to `C=CCOC(=O)Oc1c(C)c2c(c3c1CC1[C@H]4c5c(cc(C)c(OC)c5O)C[C@@H]([C@H](C#N)N1[C@H]3CN)N4C)OCO2` (stereo partly drawn), the IC50 with P-388, in the experiment with A-549, in the experiment with HT-29, in the experiment on MEL-28 and with DU-145 was 0.06 µM throughout.
Take `C=CCOC(=O)Oc1c(C)c2c(c3c1CC1[C@H]4c5c(cc(C)c(OC)c5O)C[C@@H]([C@H](C#N)N1[C@H]3CNC(=O)OCC(Cl)(Cl)Cl)N4C)OCO2` (stereo partly drawn): the half-maximal inhibitory concentration (IC50) in the experiment with P-388, in the experiment on A-549, with HT-29, in the experiment with MEL-28 and with DU-145 was 0.006 µM each time.
Take `C=CCOC(=O)Oc1c(C)c2c(c3c1CC1[C@H]4c5c(cc(C)c(OC)c5OCOC)C[C@@H]([C@H](C#N)N1[C@H]3CNC(=O)OCC(Cl)(Cl)Cl)N4C)OCO2` (stereo partly drawn): the IC50 with P-388, with A-549, with HT-29, with MEL-28 and in the experiment on DU-145 was 0.1 µM in each case.
In the case of `COc1c(C)cc2c(c1O)[C@@H]1C3Cc4c(O)c(C)c5c(c4[C@H](CNC(=O)/C=C/c4ccccc4)N3[C@@H](C#N)[C@H](C2)N1C)OCO5` (stereo partly drawn), the IC50 in the experiment on P-388, in the experiment with A-549, with HT-29, in the experiment with MEL-28 and in the experiment on DU-145 was 0.001 µM each time.
As for `C=CCOC(=O)Oc1c(C)c2c(c3c1CC1[C@H]4c5c(cc(C)c(OC)c5OCOC)C[C@@H]([C@H](O)N1[C@H]3CNC(=O)CCc1ccccc1)N4C)OCO2` (stereo partly drawn), the IC50 in the experiment on P-388, in the experiment with A-549, in the experiment with HT-29, with MEL-28 and in the experiment with DU-145 was 0.1 µM each time.
With `COCOc1c(OC)c(C)cc2c1[C@@H]1C3Cc4c(O)c(C)c5c(c4[C@H](CNC(=O)CCc4ccccc4)N3[C@@H](C#N)[C@H](C2)N1C)OCO5` (stereo partly drawn), the concentration for half-maximal inhibition (IC50) in the experiment on P-388, with A-549, in the experiment with HT-29, with MEL-28 and in the experiment on DU-145 was 0.1 µM each time.
On to `COCOc1c(OC)c(C)cc2c1[C@@H]1C3Cc4c(OC(=O)C(F)(F)F)c(C)c5c(c4[C@H](CNC(=O)CCc4ccccc4)N3[C@@H](C#N)[C@H](C2)N1C)OCO5` (stereo partly drawn), for which the IC50 with P-388, with A-549, in the experiment with HT-29, with MEL-28 and in the experiment with DU-145 was 0.5 µM in each case.
